Target: T1, rASCT2 (Rattus norvegicus, UniProt D3ZJ25)
T1 construct: expressed in transfected cells; host or cells: HEK293 (ATCC CRL-11268), transient transfection
T1 sequence (D3ZJ25 1-555): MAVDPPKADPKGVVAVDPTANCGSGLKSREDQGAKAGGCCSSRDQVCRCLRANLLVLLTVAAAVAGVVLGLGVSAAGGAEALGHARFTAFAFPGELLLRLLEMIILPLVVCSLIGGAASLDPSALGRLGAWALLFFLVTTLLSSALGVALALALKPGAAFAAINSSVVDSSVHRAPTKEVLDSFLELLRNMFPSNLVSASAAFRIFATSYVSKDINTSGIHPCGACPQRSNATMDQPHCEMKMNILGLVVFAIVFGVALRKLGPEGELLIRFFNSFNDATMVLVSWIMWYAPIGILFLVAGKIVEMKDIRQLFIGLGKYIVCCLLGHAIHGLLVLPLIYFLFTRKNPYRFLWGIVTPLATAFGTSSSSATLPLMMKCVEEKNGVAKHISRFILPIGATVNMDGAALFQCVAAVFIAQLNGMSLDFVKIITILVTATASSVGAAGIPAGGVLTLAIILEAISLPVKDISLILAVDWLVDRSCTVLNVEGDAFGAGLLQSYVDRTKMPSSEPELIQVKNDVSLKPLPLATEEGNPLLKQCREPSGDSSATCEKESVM
Test: Inhibitor dissociation kinetics by ligand displacement with alanine (rapid solution exchange)
Assay type: cell-based
Protocol: Fig. 2. […] (A) Electrophysiological recordings obtained after application of alanine (red trace) and increasing concentrations of Lc-BPE (black traces). The times of application of alanine or Lc-BPE are shown by a gray bar (top). (B and C) Lc-BPE inhibitor dose–response relationships for rASCT2 and hASCT2, respectively. […] Currents were normalized to the current recorded after application of 10 µM inhibitor concentration. (D) Inhibition of glutamine uptake (5 µM external concentration) in the presence of varying concentration of Lc-BPE and 5 µM glutamine measured in proteoliposomes reconstituted with purified hASCT2. […] Errors bars represent SEM from at least two biologically independent measurements. (E) Current recorded after rapid solution exchange from extracellular buffer (control, gray bar, black trace) to a solution containing buffer + 5 mM alanine (white bar). For the red trace, the cell was preincubated with 10 µM Lc-BPE (red bar, red trace) followed by rapid application of 5 mM alanine. All current recordings were performed at 0 mV in the presence of 130 mM NaSCN internal and 140 mM NaCl external (homoexchange) solutions. […]
To test this, we measured the dissociation kinetics of Lc-BPE using a ligand displacement approach. First, rASCT2-expressing cells were preincubated with a saturating solution of Lc-BPE (10 µM), and subsequently the inhibitor was displaced using a supersaturating concentration of the substrate L-alanine (5 mM) (Fig. 2 E and F).

[1] = preincubation with 10 µM inhibitor, displaced with 5 mM alanine

O=C(O[C@@H]1CN[C@H](C(=O)O)C1)c1ccc(-c2ccccc2)cc1 [Lc-BPE, L-cis hydroxyproline biphenyl ester]
slowing of activation of the anion current by alanine after preincubation (10 µM inhibitor preincubation, 5 mM alanine): more than sixfold
rate constant kobs, mean (single-exponential fit) (preapplied 10 µM inhibitor followed by 5 mM alanine, 0 mV): 4.9 ± 0.2 s⁻¹
rate constant for dissociation [1]: 2.16 s⁻¹
residence time in the rASCT2 binding site [1]: ~500 ms

From publication PMC8449414, “Rational design of ASCT2 inhibitors using an integrated experimental-computational approach” (Proceedings of the National Academy of Sciences of the …, 2021)
